Reference: patent US20260365690A1, “COMPOUND FOR RNA CAPPING AND USE THEREOF” (GUANGZHOU HENOVCOM BIOSCIENCE CO., LTD., priority 2022, published 2026)

What was measured:
mRNA [1] = experiment: mRNA synthesis by in vitro transcription (co-transcriptional capping), final product mass; type: biochemical; details: obtained from 20 μL mRNA synthesis reaction system; T7 RNA Polymerase; cap analog 4 mM; 37 °C, 2 to 3 hours
Procedure: (§1) 1) The plasmids were linearized and the DNA templates were purified.
(§2) 2) The mRNA was synthesized by in vitro transcription, using 11 cap structures of the present disclosure, positive control CleanCap®AG (3′OMe) (Trilink, N-7413), negative control (uncapped mRNA) and blank control (DNase/RNase-Free water), respectively.
(§3) The reaction was carried out at 37 °C for 2 to 3 hours. TURBO DNase digestion was carried out for 15 minutes. The mRNA was precipitated by LiC for 30 min or more or overnight, and the mRNA precipitate was washed with 75% ethanol, dried briefly to evaporate the ethanol, and the mRNA was redissolved with RNase-Free water.
3) The transcription product was purified, and the reaction yield was calculated to provide the test results of some compounds, as shown in Table 2.

mRNA [2] = experiment: Capping efficiency of mRNA by LC-MS; type: biochemical; details: cap analog 4 mM in in vitro transcription, RNase H cleaved 5′ fragment
Procedure: as §1, §2, §3
Gradient annealing was performed in a PCR instrument: […]
5) Magnetic beads were pre-treated and bound to probes.
100 μL of magnetic beads were taken and placed on a magnetic stand. The storage solution was discarded, and 100 μL of 1*BW solution was added thereto. After mixing well, the mixture was placed on the magnetic stand, and the supernatant was discarded. The wash was carried out three times in the same way. 100 μL of wash A buffer was added thereto. After mixing well, the mixture was placed on the magnetic stand, and the supernatant was discarded. The wash was carried out three times in the same way. 100 μL of wash B buffer was added thereto. After mixing well, the mixture was placed on the magnetic stand, and the supernatant was discarded. The wash was carried out three times in the same way. 120 μL of the sample was added to the magnetic bead solution and incubated for 30 min at room temperature with gentle mixing while incubating.
6) The mRNA was cut to obtain the 5′ single-stranded sequence of mRNA bound to probes.
20 μL of RNase H (5 U/μL) was added thereto, incubated at 37 °C for 3 hours, and mixed well every half hour. 100 μL of 1*BW solution was added thereto. After mixing well, the mixture was placed on the magnetic stand, and the supernatant was discarded. The wash was carried out three times in the same way. 100 μL of deionized water solution was added thereto. After mixing well, the mixture was placed on the magnetic stand, and the supernatant was discarded. The wash was carried out three times in the same way. 100 μL of 75% methanol was added thereto at 80 °C, then the mixture was heated to 80 °C on a heating plate and held for 3 min, placed on the magnetic stand, and the supernatant was aspirated. The sample was dried at room temperature for 45 min to 10 μL using an evaporative centrifuge and then resuspended in 50 μL of 100 μM EDTA/1% MeOH for LC-MS analysis.
LC-MS was used to analyze the capping efficiency of mRNA synthesized by analogues with different cap structures. The capping efficiency results of some compounds in the detection results are now provided.

HEK293T cells = experiment: Expression efficiency of capped luciferase mRNAs in HEK293T cells; type: cell-based; details: 6 h after transfection of capped luciferase mRNA into HEK293T cells; ratio to N-7413 (= 1)
Procedure: 2. Evaluation of Expression Efficiency of Different Capped Luciferase mRNAs in HEK293T Cells
1) HNE293T cells were cultured in DMEM medium containing 10% FBS and penicillin/streptomycin at 37 °C and 5% CO2.
2) The cultured HEK293T cells were spread in a 96-well plate with 1.25×10^4 cells per well.
3) After the cells completely adhered to the wall, 0.5 μg of a mixture of mRNA sample and Polyplus jetMESSENGER was added to each well of cells, and cultured at 37 °C and 5% CO2 for 6 hours.
4) The growth medium was removed from the cells to be tested and the cells were rinsed with PBS. After centrifugation to remove PBS, 50 μL of 1× lysis buffer was added thereto, and cells and all liquid were transferred to a microcentrifuge tube, and then centrifuged at 12000×g and 4 °C for 2 min.
5) The supernatant was transferred to a new tube. Fluorescence readings were detected using the ONE-Glo Luciferase Assay System Kit.
3. All compounds, N-7413, negative control and blank control were tested under the same conditions, and some experimental results in the test results are shown in Table 5.
The relative fluorescence reading results (6 h) after transfection of capped mRNA into 293T cells are now provided, as shown in Table 5. It can be seen from the FIGURE that the mRNA capped by the compound of the present disclosure has a high expression level, and some cap structures can enable higher expression efficiency of mRNA compared to N-7413.

| Compound | Final product mass (mRNA [1]) | Capping efficiency (mRNA [2]) | Relative fluorescence reading (HEK293T cells) |
| --- | --- | --- | --- |
| CO[C@@H]1[C@H](OP(=O)(O)OC[C@H]2O[C@@H](n3cnc4c(=O)[nH]c(N)nc43)[C@H](O)[C@@H]2O)[C@@H](COP(=O)(O)OP(=O)([O-])OP(=O)(O)OC[C@H]2O[C@@H](n3c[n+](C)c4c(=O)[nH]c(N)nc43)[C@H](O)[C@@H]2C(=O)N(C)C)O[C@H]1n1cnc2c(N)ncnc21 [Compound 193] | 105 µg | A (100% > A ≥ 95%) | 1.64 |
| CCC[C@H]1[C@@H](O)[C@H](n2c[n+](C)c3c(=O)[nH]c(N)nc32)O[C@@H]1COP(=O)(O)OP(=O)(O)OP(=O)(O)OC[C@H]1O[C@@H](n2cnc3c(N)ncnc32)[C@H](OC)[C@@H]1OP(=O)(O)OC[C@H]1O[C@@H](n2cnc3c(=O)[nH]c(N)nc32)[C@H](O)[C@@H]1O.[Na+] [Compound 5] | 117 µg | A (100% > A ≥ 95%) | 1.85 |
| C=CC[C@H]1[C@@H](O)[C@H](n2c[n+](C)c3c(=O)[nH]c(N)nc32)O[C@@H]1COP(=O)(O)OP(=O)(O)OP(=O)(O)OC[C@H]1O[C@@H](n2cnc3c(N)ncnc32)[C@H](OC)[C@@H]1OP(=O)(O)OC[C@H]1O[C@@H](n2cnc3c(=O)[nH]c(N)nc32)[C@H](O)[C@@H]1O [Compound 710] | 108 µg | A (100% > A ≥ 95%) | 1.90 |
| CO[C@@H]1[C@H](OP(=O)(O)OC[C@H]2O[C@@H](n3cnc4c(=O)[nH]c(N)nc43)[C@H](O)[C@@H]2O)[C@@H](COP(=O)(O)OP(=O)(O)OP(=O)(O)OC[C@H]2O[C@@H](n3c[n+](C)c4c(=O)[nH]c(N)nc43)[C@H](O)[C@@H]2NC(C)=O)O[C@H]1n1cnc2c(N)ncnc21 [Compound 289] | 113 µg | A (100% > A ≥ 95%) | 1.70 |
